Laboratory results as given in PubChem BioAssay (NCI).
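At the GI50, growth is halved. TGI denotes the concentration required for complete inhibition of growth.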

How the values were obtained:
Assay in all cases: DTP human tumour cell line panel, 384-well format
MDA-MB-468 breast = tested on: MDA-MB-468 breast
SK-MEL-5 melanoma = tested on: SK-MEL-5 melanoma
SK-OV-3 ovarian = tested on: SK-OV-3 ovarian
MCF7 breast = tested on: MCF7 breast
NCI-H226 lung = tested on: NCI-H226 lung
MALME-3M melanoma = tested on: MALME-3M melanoma
NCI-H23 lung = tested on: NCI-H23 lung
SK-MEL-28 melanoma = tested on: SK-MEL-28 melanoma
OVCAR-3 ovarian = tested on: OVCAR-3 ovarian
MDA-MB-231 breast = tested on: MDA-MB-231 breast
MDA-MB-435 melanoma = tested on: MDA-MB-435 melanoma
LOX IMVI melanoma = tested on: LOX IMVI melanoma
HOP-92 NSCLC = tested on: HOP-92 NSCLC

SMILES	GI50 (MDA-MB-468 breast) [µM]	TGI (MDA-MB-468 breast) [µM]	GI50 (SK-MEL-5 melanoma) [µM]	TGI (SK-MEL-5 melanoma) [µM]	GI50 (SK-OV-3 ovarian) [µM]	TGI (SK-OV-3 ovarian) [µM]	GI50 (MCF7 breast) [µM]	TGI (MCF7 breast) [µM]	GI50 (NCI-H226 lung) [µM]	TGI (NCI-H226 lung) [µM]	GI50 (MALME-3M melanoma) [µM]	TGI (MALME-3M melanoma) [µM]	GI50 (NCI-H23 lung) [µM]	TGI (NCI-H23 lung) [µM]	GI50 (SK-MEL-28 melanoma) [µM]	TGI (SK-MEL-28 melanoma) [µM]	GI50 (OVCAR-3 ovarian) [µM]	TGI (OVCAR-3 ovarian) [µM]	GI50 (MDA-MB-231 breast) [µM]	TGI (MDA-MB-231 breast) [µM]	further results
O=C(Nc1cnn2ccc(N3CCC[C@@H]3c3cc(F)ccc3F)nc12)N1CC[C@H](O)C1	> 100	> 100	> 100	> 100	> 100	> 100	> 100	> 100	> 100	> 100	> 100	> 100	> 100	> 100	> 100	> 100	> 100	> 100	> 100	> 100	GI50 (MDA-MB-435 melanoma): > 100 µM; TGI (MDA-MB-435 melanoma): > 100 µM; GI50 (LOX IMVI melanoma): > 100 µM; TGI (LOX IMVI melanoma): > 100 µM; GI50 (HOP-92 NSCLC): > 100 µM; TGI (HOP-92 NSCLC): > 100 µM
COc1ncc(-c2nc3c(n2C(C)C)[C@H](c2ccc(Cl)cc2)N(c2cc(Cl)cn(C)c2=O)C3=O)c(OC)n1	17.3	39.6	12.7	29.6	> 76	> 100	24.7	> 100	13	30.2	12.7	42.5	60.6	> 100	> 62.3	> 100	33.3	90	44.6	> 100	GI50 (MDA-MB-435 melanoma): 60.3 µM; TGI (MDA-MB-435 melanoma): > 100 µM; GI50 (LOX IMVI melanoma): 18.9 µM; TGI (LOX IMVI melanoma): > 100 µM; GI50 (HOP-92 NSCLC): 24.8 µM; TGI (HOP-92 NSCLC): > 92.2 µM
